Laboratory results reported in US12649733B2, “3,6-diamino-pyridazin-3-yl derivatives, pharmaceutical compositions containing them and their uses as pro-apoptotic agents” (LES LABORATOIRES SERVIER, priority 2019, dated 2026).

Key:
BCLXL [1] = biological target: T1, BCLXL (Homo sapiens, UniProt Q07817, V10N/V9A); assay: AlphaLISA assay (BIM peptide displacement); assay type: binding; conditions: 20 pM protein, 1 nM peptide
Description: AlphaLISA assay measures an increase in alpha signal upon binding biotinylated GST(1-218)-(FACTOR_XA)-hs ? (2-209)(SEQ ID:02—GST UniProtKB® primary accession number P08515 and BCLXL UniProtKB® primary accession number Q07817-1) coupled to a Streptavidin labeled Alpha donor bead to N-terminally labeled peptide derived from BIM (Fluorescein-betaAla-Ahx-SEQID:05, wherein SEQ ID:05 is […]) coupled to an Anti-FTIC AlphaLISA acceptor bead.
GST(1-218)(FACTOR_XA)-hs ? (2-209) was biotinylated in 50 mM phosphate buffer using a 20 fold excess of EZ Link NHS-LC-Biotin (thermoFisher catalogue number 21336) overnight at 4° C.
The addition of a compound which binds competitively to the same site as the peptide will result in an decrease in the Alpha signal of the available donor bead-protein-peptide-acceptor bead complex due to displacement of the peptide.
An 11-point serial dilution of each compound was prepared in DMSO, the final buffer conditions were 10 mM 4-(2-hydroxyethyl)-1-piperazineethanesulfonic acid [HEPES], 150 mM NaCl, 0.05% Tween 20, pH 7.4 and 4% DMSO. The final protein concentration in the assay was 20 pM with the peptide present at 1 nM). Alpha beads were used at a final concentration of 5 ug/mL. The experiments were incubated for overnight at 23° C. after acceptor bead addition. Finally the donor bead is added and incubated for 2 hours at 23° C. before Alpha signal measured on a Biotek Synergy2 plate reader (Excitation 680 nm, emission 615 nm).

BCLXL [2] = biological target: T1, BCLXL; assay: Fluorescence polarisation assay (PUMA-based probe displacement); assay type: binding; also: 20 nM protein, 10 nM fluorescent probe
MOLT-4 cells = assay: MOLT-4 cell viability, MTT assay; assay type: cell-based; conditions: Homo sapiens, MOLT-4, 48 h, 48 h exposure
Outline: (§1)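 Viability read by MTT reduction (OD 540 nm after overnight SDS/HCl lysis) after 48 h compound treatment of cells in RPMI 1640/10% FBS. Triplicates at nine concentrations, 3.16-fold apart; four-parameter curve fitting yields IC50.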

H146 cells = assay: H146 cell viability, MTT assay; assay type: cell-based; conditions: Homo sapiens, NCI-H146, 48 h, 48 h exposure
Outline: as §1

T1 sequence (Q07817 with tags, fused parts or gaps V9A/V10N): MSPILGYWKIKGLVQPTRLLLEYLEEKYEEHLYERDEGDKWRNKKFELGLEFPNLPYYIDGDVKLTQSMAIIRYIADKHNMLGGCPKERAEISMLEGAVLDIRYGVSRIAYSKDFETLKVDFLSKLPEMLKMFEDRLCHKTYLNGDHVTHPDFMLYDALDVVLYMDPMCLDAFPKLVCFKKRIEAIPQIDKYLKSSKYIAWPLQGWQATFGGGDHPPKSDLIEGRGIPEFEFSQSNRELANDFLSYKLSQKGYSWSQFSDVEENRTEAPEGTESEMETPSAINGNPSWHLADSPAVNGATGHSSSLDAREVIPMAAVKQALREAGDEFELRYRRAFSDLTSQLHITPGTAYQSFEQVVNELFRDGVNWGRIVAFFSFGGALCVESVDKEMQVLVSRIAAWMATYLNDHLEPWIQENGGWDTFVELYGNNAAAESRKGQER

| SMILES | IC50 (BCLXL [1]) [nM] | Ki (BCLXL [2]) [nM] | IC50 (MOLT-4 cells) [nM] | IC50 (H146 cells) [nM] |
| --- | --- | --- | --- | --- |
| Cc1cc(N(C)c2nc(C(=O)O)c(C3CCN(C(=O)Cc4ccccc4)CC3)s2)nnc1Nc1nc2ccccc2s1 [Example 96, 2-({6-[(1,3-Benzothiazol-2-yl)amino]-5-methylpyridazin-3-yl}(methyl)amino)-5-[1-(2-phenylacetyl)piperidin-4-yl]-1,3-thiazole-4-carboxylic acid] | 270 | 220 | – | – |
| CC(=O)N1CCC(c2sc(N(C)c3cc(C)c(Nc4nc5ccccc5s4)nn3)nc2C(=O)O)CC1 [Example 97, 5-(1-Acetylpiperidin-4-yl)-2-({6-[(1,3-benzothiazol-2-yl)amino]-5-methylpyridazin-3-yl}(methyl)amino)-1,3-thiazole-4-carboxylic acid] | 210 | 130 | – | – |
| Cc1cc(N(CCCCO)c2nc(C(=O)O)cs2)nnc1Nc1nc2ccccc2s1 [Example 110, 2-[[6-(1,3-Benzothiazol-2-ylamino)-5-methyl-pyridazin-3-yl]-(4-hydroxybutyl)amino]thiazole-4-carboxylic acid] | 0.48 | – | – | – |
| COC(CO)CN(c1cc(C)c(Nc2nc3ccccc3s2)nn1)c1nc(C(=O)O)cs1 (stereo not drawn) [Example 111, 2-[[6-(1,3-Benzothiazol-2-ylamino)-5-methyl-pyridazin-3-yl]-(3-hydroxy-2-methoxy-propyl)amino]thiazole-4-carboxylic acid] | 27 | – | – | – |
| CNCC#Cc1ccc(OCCCc2sc(N(CCCC(CO)OC)c3cc(C)c(Nc4nc5ccccc5s4)nn3)nc2C(=O)O)c(F)c1 (stereo not drawn) [Example 112, 2-[[6-(1,3-Benzothiazol-2-ylamino)-5-methyl-pyridazin-3-yl]-(5-hydroxy-4-methoxy-pentyl)amino]-5-[3-[2-fluoro-4-[3-(methylamino)prop-1-ynyl]phenoxy]propyl]thiazole-4-carboxylic acid] | 0.028 | – | 77.5 | 30.9 |
| CNCC#Cc1ccc(OCCCc2sc(N(CCCC(O)CN3CCOCC3)c3cc(C)c(Nc4nc5ccccc5s4)nn3)nc2C(=O)O)c(F)c1 (stereo not drawn) [Example 113, 2-[[6-(1,3-Benzothiazol-2-ylamino)-5-methyl-pyridazin-3-yl]-(4-hydroxy-5-morpholino-pentyl)amino]-5-[3-[2-fluoro-4-[3-(methylamino)prop-1-ynyl]phenoxy]propyl]thiazole-4-carboxylic acid] | 0.028 | – | 25.7 | 13 |
| CNCC#Cc1ccc(OCCCc2sc(N(CC(CO)N3CCOCC3)c3cc(C)c(Nc4nc5ccccc5s4)nn3)nc2C(=O)O)c(F)c1 (stereo not drawn) [Example 115, 2-[[6-(1,3-Benzothiazol-2-ylamino)-5-methyl-pyridazin-3-yl]-(3-hydroxy-2-morpholino-propyl)amino]-5-[3-[2-fluoro-4-[3-(methylamino)prop-1-ynyl]phenoxy]propyl]thiazole-4-carboxylic acid] | 0.089 | – | > 150 | > 150 |
| Cc1ccc(S(=O)(=O)N(C)CC#Cc2ccc(OCCCc3sc(N(CCC(O)CO)c4cc(C)c(Nc5nc6ccccc6s5)nn4)nc3C(=O)O)c(F)c2)cc1 (stereo not drawn) [Example 120, 2-[[6-(1,3-Benzothiazol-2-ylamino)-5-methyl-pyridazin-3-yl]-(3,4-dihydroxybutyl)amino]-5-[3-[2-fluoro-4-[3-[methyl(p-tolylsulfonyl)amino]prop-1-ynyl]phenoxy]propyl]thiazole-4-carboxylic acid] | 0.099 | – | 557 | 280 |
| COc1ccc(CN(C)CC#Cc2ccc(OCCCc3sc(N(CCC(O)CO)c4cc(C)c(Nc5nc6ccccc6s5)nn4)nc3C(=O)O)c(F)c2)cc1 (stereo not drawn) [Example 121, 2-[[6-(1,3-Benzothiazol-2-ylamino)-5-methyl-pyridazin-3-yl]-(3,4-dihydroxybutyl)amino]-5-[3-[2-fluoro-4-[3-[(4-methoxyphenyl)methyl-methyl-amino]prop-1-ynyl]phenoxy]propyl]thiazole-4-carboxylic acid] | 0.058 | – | – | – |
| Cc1cc(N(CCCCCO)c2nc(C(=O)O)cs2)nnc1Nc1nc2ccccc2s1 [Example 125, 2-[[6-(1,3-Benzothiazol-2-ylamino)-5-methyl-pyridazin-3-yl]-(5-hydroxypentyl)amino]thiazole-4-carboxylic acid] | 8.6 | – | – | – |
| Cc1cc(N(CCCO)c2nc(C(=O)O)c(CCCOc3ccc(C#CCN(C)C)cc3F)s2)nnc1Nc1nc2ccccc2s1 [Example 126, 2-[[6-(1,3-Benzothiazol-2-ylamino)-5-methyl-pyridazin-3-yl]-(3-hydroxypropyl)amino]-5-[3-[4-[3-(dimethylamino)prop-1-ynyl]-2-fluoro-phenoxy]propyl]thiazole-4-carboxylic acid] | 0.023 | – | – | – |
| Cc1cc(N(CCCC(O)CN2CCOCC2)c2nc(C(=O)O)cs2)nnc1Nc1nc2ccccc2s1 (stereo not drawn) [Example 131, 2-[[6-(1,3-Benzothiazol-2-ylamino)-5-methyl-pyridazin-3-yl]-(4-hydroxy-5-morpholino-pentyl)amino]thiazole-4-carboxylic acid] | 2.7 | – | – | – |
| COCC(O)CCCN(c1cc(C)c(Nc2nc3ccccc3s2)nn1)c1nc(C(=O)O)cs1 (stereo not drawn) [Example 132, 2-[[6-(1,3-Benzothiazol-2-ylamino)-5-methyl-pyridazin-3-yl]-(4-hydroxy-5-methoxy-pentyl)amino]thiazole-4-carboxylic acid] | 7.7 | – | – | – |
| COC(CO)CCCN(c1cc(C)c(Nc2nc3ccccc3s2)nn1)c1nc(C(=O)O)cs1 (stereo not drawn) [Example 133, 2-[[6-(1,3-Benzothiazol-2-ylamino)-5-methyl-pyridazin-3-yl]-(5hydroxy-4-methoxy-pentyl)amino]thiazole-4-carboxylic acid] | 8.9 | – | – | – |
| Cc1cc(N(C)c2nc(C(=O)O)c(C3CN(C(=O)OC(C)(C)C)C3)s2)nnc1Nc1nc2ccccc2s1 [Example 135, 2-({6-[(1,3-Benzothiazol-2-yl)amino]-5-methylpyridazin-3-yl}(methyl)amino)-5-{1-[(tert-butoxy)carbonyl]azetidin-3-yl}-1,3-thiazole-4-carboxylic acid] | 3.9 | – | 3240 | 5290 |
| Cc1cc(N(C)c2nc(C(=O)O)c(C3CN(C(=O)c4ccccc4)C3)s2)nnc1Nc1nc2ccccc2s1 [Example 136, 5-(1-Benzoylazetidin-3-yl)-2-({6-[(1,3-benzothiazol-2-yl)amino]-5-methylpyridazin-3-yl}(methyl)amino]-1,3-thiazole-4-carboxylic acid] | 7.7 | – | – | – |
| Cc1cc(N(C)c2nc(C(=O)O)c(CC(C)(C)COc3ccc(C#CCN(C)C)cc3F)s2)nnc1Nc1nc2ccccc2s1 [Example 137, 2-({6-[(1,3-Benzothiazol-2-yl)amino]-5-methylpyridazin-3-yl}(methyl)amino)-5-(3-{4-[3-(dimethylamino)prop-1-yn-1-yl]-2-fluorophenoxy}-2,2-dimethylpropyl)-1,3-thiazole-4-carboxylic acid] | 0.27 | – | 61.4 | 320 |
| Cc1cc(N(C)c2nc(C(=O)O)c(C3CN(C(=O)Cc4ccccc4)C3)s2)nnc1Nc1nc2ccccc2s1 [Example 138, 2-({6-[(1,3-Benzothiazol-2-yl)amino]-5-methylpyridazin-3-yl}(methyl)amino)-5-[1-(2-phenylacetyl)azetidin-3-yl]-1,3-thiazole-4-carboxylic acid] | 11 | 29 | – | – |
| Cc1cc(N(CCCC(O)CN(C)C)c2nc(C(=O)O)cs2)nnc1Nc1nc2ccccc2s1 (stereo not drawn) [Example 143, 2-[[6-(1,3-Benzothiazol-2-ylamino)-5-methyl-pyridazin-3-yl]-[5-(dimethylamino)-4-hydroxy-pentyl]amino]thiazole-4-carboxylic acid] | 22 | – | – | – |
| CC(=O)N1CC(c2sc(N(C)c3cc(C)c(Nc4nc5ccccc5s4)nn3)nc2C(=O)O)C1 [Example 152, 5-(1-Acetylazetidin-3-yl)-2-({6-[(1,3-benzothiazol-2-yl)amino]-5-methylpyridazin-3-yl}(methyl)amino)-1,3-thiazole-4-carboxylic acid] | 2.3 | – | – | – |
| Cc1cc(N(C)c2nc(C(=O)O)c(C3CN(c4ccccc4)C3)s2)nnc1Nc1nc2ccccc2s1 [Example 153, 2-({6-[(1,3-Benzothiazol-2-yl)amino]-5-methylpyridazin-3-yl}(methyl)amino)-5-(1-phenylazetidin-3-yl)-1,3-thiazole-4-carboxylic acid] | 80 | – | – | – |
| C/C(=C\c1sc(N(C)c2cc(C)c(Nc3nc4ccccc4s3)nn2)nc1C(=O)O)COc1ccccc1 [Example 162, 2-({6-[(1,3-Benzothiazol-2-yl)amino]-5-methylpyridazin-3-yl}(methyl)amino)-5-[(1E)-2-methyl-3-phenoxyprop-1-en-1-yl]-1,3-thiazole-4-carboxylic acid] | 1.9 | – | 3170 | 6590 |
